Reference: patent US10160755B2 (Plexxikon Inc., priority 2015, dated 2018)

Assays:
c-Kit = c-Kit (Homo sapiens, UniProt P10721); experiment: c-Kit biochemical assay (per US 2007/0032519)
Description: The following Table 2 provides data indicating FLT3 ITD, FLT3 D835Y, and KIT biochemical activity, and BaF3 FLT3 ITD/F69L cellular inhibitory activity for exemplary compounds described in this disclosure. In the table below, activity is provided as follows: +++=0.0001<IC50<1 μM; ++=1 μM<IC50<10 μM, +=10 μM<IC50<200 μM. Assays for the biochemical activity of c-Kit and FMS were conducted according to those assays described in US Patent Application Publication number US 2007/0032519, the disclosure of which is hereby incorporated by reference in its entirety.

FLT3-D835Y = biological target: T1, FLT3-D835Y (Homo sapiens, UniProt P36888, D835Y); experiment: FLT3-D835Y biochemical kinase assay (AlphaScreen)
T1 construct: purchased Invitrogen PV3967
T1 sequence (P36888 27-993 D835Y): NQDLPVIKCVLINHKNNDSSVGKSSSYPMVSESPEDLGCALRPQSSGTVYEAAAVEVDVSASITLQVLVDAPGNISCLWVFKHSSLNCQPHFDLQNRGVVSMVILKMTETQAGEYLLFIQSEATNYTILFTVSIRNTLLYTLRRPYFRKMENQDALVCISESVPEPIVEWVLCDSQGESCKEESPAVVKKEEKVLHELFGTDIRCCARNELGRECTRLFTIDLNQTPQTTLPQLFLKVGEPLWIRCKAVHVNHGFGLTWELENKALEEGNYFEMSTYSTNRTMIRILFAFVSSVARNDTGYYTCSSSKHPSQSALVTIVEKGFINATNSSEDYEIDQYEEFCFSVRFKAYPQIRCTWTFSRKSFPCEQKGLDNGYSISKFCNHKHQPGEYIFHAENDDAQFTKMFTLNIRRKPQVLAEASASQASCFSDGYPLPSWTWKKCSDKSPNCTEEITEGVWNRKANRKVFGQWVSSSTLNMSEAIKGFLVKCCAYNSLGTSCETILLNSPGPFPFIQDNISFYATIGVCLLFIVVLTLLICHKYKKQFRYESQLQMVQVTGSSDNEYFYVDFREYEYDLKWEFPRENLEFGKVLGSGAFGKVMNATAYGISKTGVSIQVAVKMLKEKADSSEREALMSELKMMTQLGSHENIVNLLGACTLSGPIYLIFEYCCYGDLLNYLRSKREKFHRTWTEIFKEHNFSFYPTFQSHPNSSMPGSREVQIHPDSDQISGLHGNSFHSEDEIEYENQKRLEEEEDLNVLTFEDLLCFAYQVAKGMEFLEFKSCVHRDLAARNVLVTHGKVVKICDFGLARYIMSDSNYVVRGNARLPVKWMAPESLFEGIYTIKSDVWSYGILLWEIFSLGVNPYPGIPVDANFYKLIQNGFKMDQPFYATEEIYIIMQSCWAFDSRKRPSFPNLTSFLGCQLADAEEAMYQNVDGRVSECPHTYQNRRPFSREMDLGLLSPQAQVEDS
Summary of the method: (§1)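 Recombinant kinase, biotin-GG(EEEEY)10EE 30 nM final, ATP 10 μM (D835Y) / 100 μM (ITD). Stop/detect: SA donor beads 20 min RT, then PY20 acceptor beads 60 min RT. AlphaScreen 580 nm signal; IC50.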

FLT3-ITD = biological target: T2, FLT3-ITD (Homo sapiens, UniProt P36888); experiment: FLT3-ITD biochemical kinase assay (AlphaScreen)
T2 construct: FLT3-ITD; Invitrogen #PV6190
T2 sequence (P36888 1-993): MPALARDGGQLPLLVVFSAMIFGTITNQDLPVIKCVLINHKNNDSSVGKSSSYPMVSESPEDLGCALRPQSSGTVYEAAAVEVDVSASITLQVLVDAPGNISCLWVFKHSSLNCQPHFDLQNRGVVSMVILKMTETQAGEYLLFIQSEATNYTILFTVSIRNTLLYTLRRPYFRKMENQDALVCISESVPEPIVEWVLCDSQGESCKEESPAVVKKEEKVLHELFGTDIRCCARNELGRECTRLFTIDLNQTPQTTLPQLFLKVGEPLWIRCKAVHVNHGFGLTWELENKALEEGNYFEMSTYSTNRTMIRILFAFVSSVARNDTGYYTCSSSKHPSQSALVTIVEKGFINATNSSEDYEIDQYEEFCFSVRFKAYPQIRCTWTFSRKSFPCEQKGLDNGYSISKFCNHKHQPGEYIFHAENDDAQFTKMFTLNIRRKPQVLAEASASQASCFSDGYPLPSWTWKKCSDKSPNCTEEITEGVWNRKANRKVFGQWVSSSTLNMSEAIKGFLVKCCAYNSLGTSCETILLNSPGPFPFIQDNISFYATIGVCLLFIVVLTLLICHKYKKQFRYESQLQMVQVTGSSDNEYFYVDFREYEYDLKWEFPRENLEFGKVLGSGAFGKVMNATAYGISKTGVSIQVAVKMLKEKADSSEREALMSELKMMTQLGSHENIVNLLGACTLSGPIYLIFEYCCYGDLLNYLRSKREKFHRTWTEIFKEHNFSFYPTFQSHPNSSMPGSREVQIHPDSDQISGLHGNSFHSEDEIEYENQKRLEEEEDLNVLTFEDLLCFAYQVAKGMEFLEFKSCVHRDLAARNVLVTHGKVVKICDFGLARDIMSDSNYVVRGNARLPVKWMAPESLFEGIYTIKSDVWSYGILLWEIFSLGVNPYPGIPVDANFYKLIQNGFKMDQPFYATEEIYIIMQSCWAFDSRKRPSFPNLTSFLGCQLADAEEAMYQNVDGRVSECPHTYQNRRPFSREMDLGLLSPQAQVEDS
Summary of the method: as §1

Sequence of c-Kit (P10721 26-976): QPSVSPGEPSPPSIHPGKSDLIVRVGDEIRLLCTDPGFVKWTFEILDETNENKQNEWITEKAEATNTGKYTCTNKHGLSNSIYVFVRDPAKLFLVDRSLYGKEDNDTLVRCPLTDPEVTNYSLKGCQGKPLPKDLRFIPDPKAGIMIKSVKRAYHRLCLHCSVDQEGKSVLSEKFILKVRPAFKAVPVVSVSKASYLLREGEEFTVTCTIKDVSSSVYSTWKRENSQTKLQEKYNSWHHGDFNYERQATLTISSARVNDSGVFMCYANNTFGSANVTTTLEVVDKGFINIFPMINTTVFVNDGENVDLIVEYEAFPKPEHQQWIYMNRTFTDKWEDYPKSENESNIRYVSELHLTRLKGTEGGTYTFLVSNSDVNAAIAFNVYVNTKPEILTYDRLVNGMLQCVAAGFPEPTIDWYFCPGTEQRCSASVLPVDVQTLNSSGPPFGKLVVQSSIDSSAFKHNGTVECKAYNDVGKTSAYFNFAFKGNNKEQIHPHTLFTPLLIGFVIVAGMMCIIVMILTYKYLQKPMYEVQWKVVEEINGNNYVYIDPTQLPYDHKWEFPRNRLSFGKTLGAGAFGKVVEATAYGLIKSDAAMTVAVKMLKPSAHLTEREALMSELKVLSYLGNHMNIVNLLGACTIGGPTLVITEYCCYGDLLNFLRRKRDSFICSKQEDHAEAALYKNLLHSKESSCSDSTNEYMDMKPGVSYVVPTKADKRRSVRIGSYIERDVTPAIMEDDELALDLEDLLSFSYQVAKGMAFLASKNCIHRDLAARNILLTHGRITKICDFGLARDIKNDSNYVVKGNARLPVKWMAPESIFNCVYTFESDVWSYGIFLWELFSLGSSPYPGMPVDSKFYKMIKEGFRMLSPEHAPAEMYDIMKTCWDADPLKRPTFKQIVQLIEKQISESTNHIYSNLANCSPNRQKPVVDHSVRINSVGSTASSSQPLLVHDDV

Row | Structure (SMILES) | IC50 (c-Kit) [µM] | IC50 (FLT3-D835Y) [µM] | IC50 (FLT3-ITD) [µM]
1 | Cn1cnc2ccc(-c3c[nH]c4ncc(-c5cccc(C#N)c5)cc34)cc21 [P-089, 3-[3-(3-methylbenzimidazol-5-yl)-1H-pyrrolo[2,3-b]pyridin-5-yl]benzonitrile] | 10 to 200 | 0.0001 to 1 | 0.0001 to 1
2 | c1cnc2[nH]cc(-c3ccc4ncsc4c3)c2c1 [P-030, 6-(1H-pyrrolo[2,3-b]pyridin-3-yl)-1,3-benzothiazole] | 1 to 10 | 0.0001 to 1 | 0.0001 to 1
3 | CN1CCOc2ccc(-c3c[nH]c4ncc(-c5cccc(NS(C)(=O)=O)c5)nc34)cc21 [P-065, N-[3-[7-(4-methyl-2,3-dihydro-1,4-benzoxazin-6-yl)-5H-pyrrolo[2,3-b]pyrazin-2-yl]phenyl]methanesulfonamide] | 10 to 200 | 0.0001 to 1 | 0.0001 to 1
4 | COc1cnc2[nH]cc(-c3ccc4ncn(C5CC5)c4c3)c2c1 [P-060, 1-cyclopropyl-6-(5-methoxy-1H-pyrrolo[2,3-b]pyridin-3-yl)benzimidazole] | 10 to 200 | 0.0001 to 1 | 0.0001 to 1
5 | CS(=O)(=O)Nc1cccc(-c2cnc3[nH]cc(-c4ccc5ncn(C6CCCC6)c5c4)c3n2)c1 [P-070, N-[3-[7-(3-cyclopentylbenzimidazol-5-yl)-5H-pyrrolo[2,3-b]pyrazin-2-yl]phenyl]methanesulfonamide] | 1 to 10 | 0.0001 to 1 | 0.0001 to 1
6 | COc1cnc2[nH]cc(-c3ccc4[nH]nc(C)c4c3)c2c1 [P-083, 5-methoxy-3-(3-methyl-1H-indazol-5-yl)-1H-pyrrolo[2,3-b]pyridine] | 1 to 10 | 0.0001 to 1 | 0.0001 to 1
7 | Cn1cc(-c2ccc(-c3cnc4[nH]cc(-c5ccc6ncn(C(C)(C)C)c6c5)c4n3)cc2)cn1 [P-306, 7-(3-tert-butylbenzimidazol-5-yl)-2-[4-(1-methylpyrazol-4-yl)phenyl]-5H-pyrrolo[2,3-b]pyrazine] | 1 to 10 | 0.0001 to 1 | 0.0001 to 1
8 | c1nc2cc(-c3c[nH]c4ncc(OCC5CC5)cc34)ccc2[nH]1 [P-007, 3-(1H-benzimidazol-5-yl)-5-(cyclopropylmethoxy)-1H-pyrrolo[2,3-b]pyridine] | 1 to 10 | 1 to 10 | 0.0001 to 1
9 | O=C(C1CC1)N1CCC=C(c2cnc3[nH]cc(-c4ccc5[nH]cnc5c4)c3c2)C1 [P-033, [5-[3-(1H-benzimidazol-5-yl)-1H-pyrrolo[2,3-b]pyridin-5-yl]-3,6-dihydro-2H-pyridin-1-yl]-cyclopropyl-methanone] | 10 to 200 | 1 to 10 | 0.0001 to 1
10 | Cn1cnc2ccc(-c3c[nH]c4ncc(OCC#N)cc34)cc21 [P-084, 2-[[3-(3-methylbenzimidazol-5-yl)-1H-pyrrolo[2,3-b]pyridin-5-yl]oxy]acetonitrile] | 1 to 10 | 0.0001 to 1 | 0.0001 to 1
11 | CS(=O)(=O)Nc1cccc(-c2cnc3[nH]cc(-c4ccc5ncsc5c4)c3n2)c1 [P-054, N-[3-[7-(1,3-benzothiazol-6-yl)-5H-pyrrolo[2,3-b]pyrazin-2-yl]phenyl]methanesulfonamide] | 1 to 10 | 0.0001 to 1 | 0.0001 to 1
12 | c1nc2cc(-c3c[nH]c4ncc(-c5cnc(C6CC6)nc5)cc34)ccc2[nH]1 [P-027, 3-(1H-benzimidazol-5-yl)-5-(2-cyclopropylpyrimidin-5-yl)-1H-pyrrolo[2,3-b]pyridine] | 0.0001 to 1 | 0.0001 to 1 | 0.0001 to 1
13 | CCCn1cnc2cc(-c3c[nH]c4ncc(OC)cc34)ccc21 [P-056, 5-methoxy-3-(1-propylbenzimidazol-5-yl)-1H-pyrrolo[2,3-b]pyridine] | 10 to 200 | 0.0001 to 1 | 0.0001 to 1
14 | N#Cc1cnc2[nH]cc(-c3ccc4nc[nH]c4c3)c2c1 [P-023, 3-(3H-benzimidazol-5-yl)-1H-pyrrolo[2,3-b]pyridine-5-carbonitrile] | 1 to 10 | 1 to 10 | 0.0001 to 1
15 | COc1cnc2[nH]cc(-c3ccc4[nH]cnc4c3)c2c1 [P-002, 3-(1H-benzimidazol-5-yl)-5-methoxy-1H-pyrrolo[2,3-b]pyridine] | 1 to 10 | 0.0001 to 1 | 0.0001 to 1
16 | Cn1cnc2ccc(-c3c[nH]c4ncc(-c5ccc(NS(C)(=O)=O)cc5)nc34)cc21 [P-063, N-[4-[7-(3-methylbenzimidazol-5-yl)-5H-pyrrolo[2,3-b]pyrazin-2-yl]phenyl]methanesulfonamide] | 1 to 10 | 0.0001 to 1 | 0.0001 to 1
17 | Cn1cnc2ccc(-c3c[nH]c4ncc(-c5cccc(N6CCCS6(=O)=O)c5)cc34)cc21 [P-093, 2-[3-[3-(3-methylbenzimidazol-5-yl)-1H-pyrrolo[2,3-b]pyridin-5-yl]phenyl]-1,2-thiazolidine 1,1-dioxide] | 1 to 10 | 0.0001 to 1 | 0.0001 to 1
18 | COc1cnc2[nH]cc(-c3ccc4ncn(C)c4c3)c2c1 [P-016, 5-methoxy-3-(3-methylbenzimidazol-5-yl)-1H-pyrrolo[2,3-b]pyridine] | 10 to 200 | 0.0001 to 1 | 0.0001 to 1
19 | Cn1cnc2ccc(-c3c[nH]c4ncc(-c5cccc(S(=O)(=O)N6CCCC6)c5)cc34)cc21 [P-122, 1-methyl-6-[5-(3-pyrrolidin-1-ylsulfonylphenyl)-1H-pyrrolo[2,3-b]pyridin-3-yl]benzimidazole] | 1 to 10 | 0.0001 to 1 | 0.0001 to 1
20 | Fc1cnc2[nH]cc(-c3ccc4nc[nH]c4c3)c2c1 [P-022, 3-(3H-benzimidazol-5-yl)-5-fluoro-1H-pyrrolo[2,3-b]pyridine] | 10 to 200 | 1 to 10 | 1 to 10
21 | COc1cnc2[nH]cc(-c3ccc4ncn(CC5CC5)c4c3)c2c1 [P-062, 1-(cyclopropylmethyl)-6-(5-methoxy-1H-pyrrolo[2,3-b]pyridin-3-yl)benzimidazole] | 10 to 200 | 0.0001 to 1 | 0.0001 to 1
22 | c1cnc2[nH]cc(-c3ccc4[nH]cnc4c3)c2c1 [P-004, 3-(1H-benzimidazol-5-yl)-1H-pyrrolo[2,3-b]pyridine] | 1 to 10 | 0.0001 to 1 | 1 to 10
23 | COc1cc(-c2cnc3[nH]cc(-c4ccc5ncn(C)c5c4)c3c2)cc(OC)n1 [P-123, 5-(2,6-dimethoxy-4-pyridyl)-3-(3-methylbenzimidazol-5-yl)-1H-pyrrolo[2,3-b]pyridine] | 10 to 200 | 0.0001 to 1 | 0.0001 to 1
